For this assay, the target named is T1, Sirt6 (Homo sapiens, UniProt Q8N6T7).
T1 construct: purchased CycLex CY-1156V2
The experiment in a line: Measurement of Sirt6 Activity (CycLex Sirt6 Deacetylase Fluorometric Assay Kit). The settings on record: compound at 10 μM, fluorescence relative to the group without compound treatment (positive control group). It is filed as biochemical. The gist of the method: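 Recombinant Sirt6 with fluoro-labelled acetyl-lysine peptide, NAD and lysylendopeptidase developer, compound added from 10× stock in PBS; 1 h at room temperature. Fluorescence read at ex 490/em 530 nm; activation expressed as fluorescence ratio relative to enzyme without compound.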

T1 sequence (Q8N6T7 whole entry): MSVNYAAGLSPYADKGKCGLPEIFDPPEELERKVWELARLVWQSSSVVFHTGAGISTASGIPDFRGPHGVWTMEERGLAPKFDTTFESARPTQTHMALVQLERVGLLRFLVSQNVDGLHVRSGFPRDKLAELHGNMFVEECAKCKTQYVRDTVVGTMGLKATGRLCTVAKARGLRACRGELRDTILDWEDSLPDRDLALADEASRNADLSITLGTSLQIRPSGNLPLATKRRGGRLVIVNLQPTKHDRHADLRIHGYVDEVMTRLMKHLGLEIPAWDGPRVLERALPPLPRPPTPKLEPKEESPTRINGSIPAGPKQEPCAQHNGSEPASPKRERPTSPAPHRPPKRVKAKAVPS

As to `O=C(O)C1(c2cccc(-c3nn(-c4ccc(F)cc4F)c(=O)c4ccccc34)c2)CCCC1` [Example 208, 1-(3-(3-(2,4-Difluorophenyl)-4-oxo-3,4-dihydrophthalazin-1-yl)phenyl)cyclopentane-1-carboxylic Acid], the “Sirt6 Activity (% activity, 10 μM)” value amounted to 117.30 % activity.

Regarding `CCS(=O)(=O)NC1CCN(c2nn(-c3ccc(F)cc3)c(=O)c3ccccc23)C1` (centres unmarked) [Example 137, N-(1-(3-(4-Fluorophenyl)-4-oxo-3,4-dihydrophthalazin-1-yl)pyrrolidin-3-yl)ethanesulfonamide], the “Sirt6 Activity (% activity, 10 μM)” value was determined as 112.58 % activity.

As for `CC(C)(C(=O)NC1CC1)c1cccc(-c2nn(-c3ccc(F)cc3F)c(=O)c3ccccc23)c1` [Example 178, N-Cyclopropyl-2-(3-(3-(2,4-difluorophenyl)-4-oxo-3,4-dihydrophthalazin-1-yl)phenyl)-2-methyl Propanamide], the “Sirt6 Activity (% activity, 10 μM)” value was 331.00 % activity.

In the case of `CS(=O)(=O)c1cccc(-c2nn(-c3ccccc3)c(=O)c3ccc(F)cc23)c1` [Example 110, 6-Fluoro-4-(3-(methylsulfonyl)phenyl)-2-phenylphthalazin-1(2H)-one], the “Sirt6 Activity (% activity, 10 μM)” value is recorded as 129 % activity.

Take `CC(C)/[N+]([O-])=C/c1cccc(-c2nn(-c3ccc(F)cc3F)c(=O)c3ccccc23)c1` [Example 22, (Z)-1-(3-(3-(2,4-Difluorophenyl)-4-oxo-3,4-dihydrophthalazin-1-yl)phenyl)-N-isopropyl Methanimine Oxide]: the “Sirt6 Activity (% activity, 10 μM)” value amounted to 201 % activity.

Regarding `CN(C)S(=O)(=O)c1cccc(-c2nn(-c3ccc(F)cc3F)c(=O)c3ccc(F)cc23)c1` [Example 125, 3-(3-(2,4-Difluorophenyl)-7-fluoro-4-oxo-3,4-dihydrophthalazin-1-yl)-N,N-dimethylbenzenesulfonamide], the “Sirt6 Activity (% activity, 10 μM)” value came to 172 % activity.

In the case of `CC(C)(C(=O)O)c1cccc(-c2nn(-c3ccccc3F)c(=O)c3ccccc23)c1` [Example 171, 2-(3-(3-(2-Fluorophenyl)-4-oxo-3,4-dihydrophthalazin-1-yl)phenyl)-2-methylpropanoic Acid], the “Sirt6 Activity (% activity, 10 μM)” value came out at 134.7 % activity.

Take `Cl.N[C@@H]1CCCCN(c2nn(-c3ccc(Cl)cc3F)c(=O)c3ccccc23)C1` [Example 202, (R)-4-(3-Aminoazepan-1-yl)-2-(4-chloro-2-fluorophenyl)phthalazin-1-(2H)-one-hydrochloride]: the “Sirt6 Activity (% activity, 10 μM)” value stood at 261.73 % activity.

`CCS(=O)(=O)NC1CCCN(c2nn(-c3ccc(F)cc3)c(=O)c3ccccc23)C1` (centres unmarked) [Example 135, N-(1-(3-(4-Fluorophenyl)-4-oxo-3,4-dihydrophthalazin-1-yl)piperidin-3-yl)ethanesulfonamide]: the “Sirt6 Activity (% activity, 10 μM)” value is 174.93 % activity.

In the case of `CS(=O)(=O)c1cccc(-c2nn(-c3ccc(F)cc3F)c(=O)c3cc(F)ccc23)c1` [Example 120, 2-(2,4-Difluorophenyl)-7-fluoro-4-(3-(methylsulfonyl)phenyl)phthalazin-1(2H)-one], the “Sirt6 Activity (% activity, 10 μM)” value amounted to 178 % activity.

For the compound `O=C1OCCN1c1cccc(-c2nn(-c3ccc(F)cc3)c(=O)c3ccccc23)c1` [Example 161, 3-(3-(3-(4-Fluorophenyl)-4-oxo-3,4-dihydrophthalazin-1-yl)phenyl)oxazolidin-2-one], the “Sirt6 Activity (% activity, 10 μM)” value turned out to be 177 % activity.

As for `CNS(=O)(=O)c1cccc(-c2nn(-c3ccccc3F)c(=O)c3ccccc23)c1` [Example 99, 3-(3-(2-Fluorophenyl)-4-oxo-3,4-dihydrophthalazin-1-yl)-N-methylbenzenesulfonamide], the “Sirt6 Activity (% activity, 10 μM)” value worked out at 259 % activity.

With `COC(=O)N(C)S(=O)(=O)N(C)c1cccc(-c2nn(-c3ccc(F)cc3)c(=O)c3ccccc23)c1` [Example 76, Methyl (N-(3-(3-(4-fluorophenyl)-4-oxo-3,4-dihydrophthalazin-1-yl)phenyl)-N-methylsulfamoyl) (methyl)carbamate], the “Sirt6 Activity (% activity, 10 μM)” value came to 125 % activity.

In the case of `O=C(O)C1(C2CCCN(c3nn(-c4ccc(F)cc4F)c(=O)c4ccccc34)C2)CC1` (centres unmarked) [Example 213-2, 1-(1-(3-(2,4-Difluorophenyl)-4-oxo-3,4-dihydrophthalazin-1-yl)piperidin-3-yl)cyclopropan-1-carboxylic Acid], the “Sirt6 Activity (% activity, 10 μM)” value (10 µM) is reported as 102.60 % activity.

As to `CCS(=O)(=O)N[C@H]1CCCN(c2nn(C3CCCCC3)c(=O)c3ccccc23)C1` [Example 147, (S)—N-(1-(3-Cyclohexyl-4-oxo-3,4-dihydrophthalazin-1-yl)piperidin-3-yl)ethanesulfonamide], the “Sirt6 Activity (% activity, 10 μM)” value is 127.7 % activity.

Turning to `CNS(=O)(=O)c1cccc(-c2nn(-c3ccccc3)c(=O)c3ccc(F)cc23)c1` [Example 111, 3-(7-Fluoro-4-oxo-3-phenyl-3,4-dihydrophthalazin-1-yl)-N-methylbenzenesulfonamide], the “Sirt6 Activity (% activity, 10 μM)” value was 126 % activity.

In the case of `O=C(O)C1(C2CCCN(c3nn(-c4ccc(F)cc4F)c(=O)c4ccccc34)C2)CC1` (centres unmarked) [Example 212, 1-(1-(3-(2,4-Difluorophenyl)-4-oxo-3,4-dihydrophthalazin-1-yl)piperidin-3-yl)cyclopropan-1-carboxylic Acid], the “Sirt6 Activity (% activity, 10 μM)” value (10 µM) was 170.10 % activity.

For the compound `CC(C)(C)/[N+]([O-])=C/c1cccc(-c2nn(-c3ccc(F)cc3)c(=O)c3ccccc23)c1` [Example 43, (Z)—N-tert-Butyl-1-(3-(3-(4-fluorophenyl)-4-oxo-3,4-dihydrophthalazin-1-yl)phenyl)methanimine Oxide], the “Sirt6 Activity (% activity, 10 μM)” value was determined as 205 % activity.

Consider `Cl.N[C@@H]1CCCCN(c2nn(-c3ccc(F)cc3F)c(=O)c3ccccc23)C1` [Example 165, (R)-4-(3-Aminoazepan-1-yl)-2-(2,4-difluorophenyl)phthalazin-1(2H)-one-hydrochloride], for which the “Sirt6 Activity (% activity, 10 μM)” value worked out at 277.1 % activity.

For `C/[N+]([O-])=C\c1ccc(-c2nn(-c3ccc(F)cc3)c(=O)c3ccccc23)cc1` [Example 36, (E)-1-(4-(3-(4-Fluorophenyl)-4-oxo-3,4-dihydrophthalazin-1-yl)phenyl)-N-methylmethanimine Oxide], the “Sirt6 Activity (% activity, 10 μM)” value was 142 % activity.

Take `N#CC1CCCCN(c2nn(-c3ccc(Cl)cc3F)c(=O)c3ccccc23)C1` (centres unmarked) [Example 203, 1-(3-(4-Chloro-2-fluorophenyl)-4-oxo-3,4-dihydrophthalazin-1-yl)azepane-3-carbonitrile]: the “Sirt6 Activity (% activity, 10 μM)” value was 109.84 % activity.

Take `CS(=O)(=O)c1cccc(-c2nn(-c3ccccc3F)c(=O)c3ccccc23)c1` [Example 97, 2-(2-Fluorophenyl)-4-(3-(methylsulfonyl)phenyl)phthalazin-1(2H)-one]: the “Sirt6 Activity (% activity, 10 μM)” value is listed as 286 % activity.

For `C/[N+]([O-])=C/c1cccc(-c2nn(-c3c(F)cccc3F)c(=O)c3ccccc23)c1` [Example 102, (Z)-1-(3-(3-(2,6-Difluorophenyl)-4-oxo-3,4-dihydrophthalazin-1-yl)phenyl)-N-methylmethanimine Oxide], the “Sirt6 Activity (% activity, 10 μM)” value stood at 206 % activity.

For the compound `O=c1c2ccccc2c(-c2ccc[n+]([O-])c2)nn1-c1ccc(F)cc1F` [Example 117, 3-(3-(2,4-Difluorophenyl)-4-oxo-3,4-dihydrophthalazin-1-yl)pyridine 1-oxide], the “Sirt6 Activity (% activity, 10 μM)” value is given as 318 % activity.

As for `C/[N+]([O-])=C/c1cc(-c2nn(-c3ccc(F)cc3)c(=O)c3ccccc23)ccc1F` [Example 51, (Z)-1-(2-Fluoro-5-(3-(4-fluorophenyl)-4-oxo-3,4-dihydrophthalazin-1-yl)phenyl)-N-methylmethanimine Oxide], the “Sirt6 Activity (% activity, 10 μM)” value is reported as 139 % activity.

As for `Cl.N[C@H]1CCCCN(c2nn(-c3ccc(F)cc3)c(=O)c3ccccc23)C1` [Example 158, (S)-4-(3-Aminoazepan-1-yl)-2-(4-fluorophenyl)phthalazin-1(2H)-one-hydrochloride], the “Sirt6 Activity (% activity, 10 μM)” value came out at 164.7 % activity.

Take `Cl.NC1CCCCN(c2nn(-c3ccc(F)cc3)c(=O)c3ccccc23)C1` (centres unmarked) [Example 148, 4-(3-Aminoazepan-1-yl)-2-(4-fluorophenyl)phthalazin-1(2H)-one-hydrochloride]: the “Sirt6 Activity (% activity, 10 μM)” value came to 184.3 % activity.

On to `CC(C)S(=O)(=O)N(C)c1cccc(-c2nn(-c3ccc(F)cc3)c(=O)c3ccccc23)c1` [Example 73, N-(3-(3-(4-Fluorophenyl)-4-oxo-3,4-dihydrophthalazin-1-yl)phenyl)-N-methylpropan-2-sulfonamide], for which the “Sirt6 Activity (% activity, 10 μM)” value was found to be 124 % activity.

Turning to `CC(C)(C(N)=O)c1cccc(-c2nn(-c3ccc(F)cc3F)c(=O)c3ccccc23)c1` [Example 188, 2-(3-(3-(2,4-Difluorophenyl)-4-oxo-3,4-dihydrophthalazin-1-yl)phenyl)-2-methylpropanamide], the “Sirt6 Activity (% activity, 10 μM)” value amounted to 358.40 % activity.

`CCS(=O)(=O)N1CC=C(c2nn(-c3ccc(F)cc3F)c(=O)c3ccccc23)CC1` [Example 218, 2-(2,4-Difluorophenyl)-4-(1-(ethylsulfonyl)-1,2,3,6-tetrahydropyridin-4-yl)phthalazin-1(2H)-one]: the “Sirt6 Activity (% activity, 10 μM)” value is 176.50 % activity.

Regarding `O=c1c2ccccc2c(-c2cc(/C=[N+](\[O-])Cc3ccccc3)ccc2F)nn1-c1ccc(F)cc1` [Example 58, (Z)—N-Benzyl-1-(4-fluoro-3-(3-(4-fluorophenyl)-4-oxo-3,4-dihydrophthalazin-1-yl)phenyl) Methanimine Oxide], the “Sirt6 Activity (% activity, 10 μM)” value is on record as 131 % activity.

For `CCS(=O)(=O)N(C)c1cccc(-c2nn(-c3ccc(F)cc3)c(=O)c3ccccc23)c1` [Example 70, N-(3-(3-(4-Fluorophenyl)-4-oxo-3,4-dihydrophthalazin-1-yl)phenyl)-N-methylethane Sulfonamide], the “Sirt6 Activity (% activity, 10 μM)” value is 135 % activity.
